Data reported in patent US6541506B1, “Antifungal enediynes” (Phytera Incorporated, priority 1999, dated 2003).
Values after ≈ are worked out from the molar mass of the structure shown.

What was measured:
[1] = system: C. albicans strain #64 (sensitive to fluconazole); parameters: species or system mice; conditions: mouse, in vivo
Protocol: Immunocompetent mice (ICR, Sprague-Dawley, Indianapolis, Ind.) are infected with a pathogenic strain (e.g., strain #64) of C. albicans that is sensitive to fluconazole. After 24 hours, dissemination of infection has been shown by organ colony counts (kidney, spleen, and liver) greater than 10^5 colony forming units (CFU). Treatment is begun 24 hours after infection with dosage once a day for 10 days. Untreated control mice usually die after about 16 days. After 30 days the percent survival in the group treated with fluconazole (40 mg per kg body weight, twice a day) is about 30%. In addition to measuring animal viability, the organ fungal load (in CFU) can measured.

[2] = system: C. albicans UTR-14 (fluconazole-resistant clinical isolate); assay: Fluconazole-resistant candidiasis in mice; assay type: in vivo; conditions: fluconazole-resistant C. albicans UTR-14, 40 mg per kg body weight p.o. twice daily
Protocol: In a similar experiment using a fluconazole-resistant clinical isolate (e.g., C. albicans UTR-14), the percent survival after 20 days of the group treated with fluconazole (40 mg per kg body weight p.o. (twice daily)) and in the untreated group is each usually 0%.

C. albicans DSY1024 = assay: Candida growth inhibition (XTT), C. albicans DSY1024; assay type: cell-based; conditions: C. albicans DSY1024 (Table 4)
Protocol: (§1) There are numerous assays that can be used to measure the inhibition of growth of a fungus such as Candida. In one example, cultures of Candida, e.g., C. albicans strains DSY1024 and SC5314, C. krusei ATCC 6258, and C. glabrata ATCC 90030, are subcultured from cryopreserved stocks onto Sabouraud's dextrose agar plates. Blastoconidia are suspended into RPMI-MOPS medium and inoculated (500 cfu/well) into 96-well plates containing test compounds in a final volume of 100 μL/well. After 22 hours at 35° C., 25 μL of XTT (2,3-bis(2-methoxy-4-nitro-5-sulfophenyl)-5-(phenylamino)carbonyl]-2H-tetrazolium hydroxide), (100 μg/mL) with PMS (phenazine methyl sulfate, 5 μM) are added to each well, followed by 2 hours of shaking. Growth is assessed spectrophotometrically by measuring the appearance of soluble formazan stain at 450 nm using an Emax microplate reader. Validity of the assay is confirmed by determination of the C. albicans minimum inhibitory concentration (MIC) for known antifungal agents such as amphotericin B, 5-flucytosine, fluconazole, nikkomycin Z, and polyoxin D.
LP416E8 (AC-05081-T4-3) was an organic extract of a manipulated plant cell culture from A. corsicum.

C. albicans SC5314 = assay: Candida growth inhibition (XTT), C. albicans SC5314; assay type: cell-based; conditions: for IC50 / MIC: C. albicans SC5314 (Table 4)
Protocol: as §1

T. rubrum = assay: Dermatophyte growth inhibition (microdilution, NCCLS M27A), T. rubrum; assay type: cell-based, Trichophyton rubrum; conditions: Trichophyton rubrum, 96 h
Protocol: (§2) The compounds of the invention are also effective against dermatophytes. Testing was performed using a microdilution method based on the NCCLS M27A antifungal protocol. Compounds to be tested were prepared in DMSO and diluted to the appropriate concentration in RPMI 1640 medium (the dermatophyte growth medium). An inoculum of each test organism was prepared from oatmeal agar plates to contain 0.5-2.5×10^3 conidia/mL. One hundred microliters of the inoculum was added to each well of a 96-well microtiter plate containing 4 μL of a test compound and 96 μL of RPMI 1640. Terbinafine (sold under the brand name Lamisil®) was used as a positive control.

T. mentagrophytes = assay: Dermatophyte growth inhibition (microdilution, NCCLS M27A), T. mentagrophytes; assay type: cell-based; conditions: Trichophyton mentagrophytes, 96 h
Protocol: as §2

T. tonsurans = assay: Dermatophyte growth inhibition (microdilution, NCCLS M27A), T. tonsurans; assay type: cell-based; conditions: Trichophyton tonsurans, 96 h
Protocol: as §2

M. canis = assay: Dermatophyte growth inhibition (microdilution, NCCLS M27A), M. canis; assay type: cell-based, Microsporum canis; conditions: Microsporum canis, 96 h
Protocol: as §2

`OC(Cn1cncn1)(Cn1cncn1)c1ccc(F)cc1F` [fluconazole] was tested, and the “percent survival after 30 days” value [1] was “about 30%” and the “percent survival after 20 days” value [2] was 0%.
For `C/C=C\C#CC#C/C=C/C(O)CCCCCCCC(=O)O` (stereo not shown) [Compound 6], the IC50 (C. albicans DSY1024) was 11.3 µg/mL (≈ 39.2 µM), the MIC (C. albicans DSY1024) was 12.5 µg/mL (≈ 43.3 µM) and the “inhibition of growth of strain SC5314” value (C. albicans SC5314) was “able to inhibit growth”. The IC50 (C. albicans SC5314) was 8.5 µg/mL (≈ 29.5 µM) and the MIC (C. albicans SC5314) was 12.5 µg/mL (≈ 43.3 µM).
For `O=C(O)CCCCCC=CC#CC#Cc1ccco1` [Compound 2], the IC50 (C. albicans DSY1024) was 1.817 µg/mL (≈ 7.09 µM), the MIC (C. albicans DSY1024) was 3.125 µg/mL (≈ 12.2 µM) and the “inhibition of growth of strain SC5314” value (C. albicans SC5314) was “able to inhibit growth”. It also gave an IC50 (C. albicans SC5314) of 2.592 µg/mL (≈ 10.1 µM) and an MIC (C. albicans SC5314) of 3.125 µg/mL (≈ 12.2 µM).
With `CN(C/C=C/C#CC(C)(C)C)Cc1cccc2ccccc12` [Terbinafine, reference compound] the MIC (T. rubrum) was 0.002 µg/mL (≈ 0.00686 µM), the MIC (T. mentagrophytes) was 0.004 µg/mL (≈ 0.0137 µM) and the MIC (T. tonsurans) was 0.015 µg/mL (≈ 0.0515 µM). For the same compound, the MIC (M. canis) was 0.015 µg/mL (≈ 0.0515 µM).
